The structures appear in SMILES notation. Converted amounts (≈) assume the structure as drawn. Where two headings read alike, the source gives them in different places.

For one data set, the system named is influenza virus. Nature of the data set: CPE inhibitory effect confirming assay. The format is cell-based. Particulars: unidentified influenza virus, 72 h, read-out: CPE_EC50.
A short description of the next data set: in vivo. The conditions noted are these: oral vs intravenous administration, mice or SD rats, read-out: bioavailability (BA). Here is the method: Materials and Methods for Experiments to Evaluate Oral Absorption
(1) Experimental animals: mice or SD rats were used.
(2) Rearing condition: mice or SD rats were allowed free access to solid feed and sterilized tap water.
(3) Setting of dosage and grouping: Oral administration and intravenous administration were performed with the predetermined dosage. Grouping was set as below. (Dosage was changed per compound)
Oral administration 1 to 30 mg/kg (n=2 to 3)
Intravenous administration 0.5 to 10 mg/kg (n=2 to 3)
(4) Preparation of administration solutions: Oral administration was performed as solution or suspension. Intravenous administration was performed after solubilization.
(5) Routes of administration: Oral administration was performed mandatory into the stomach by oral sonde. […]
(6) Evaluation items: Blood was collected serially and concentration of a compound of the present invention in plasma was measured by LC/MS/MS.
(7) Statistical analysis: About transition of concentration of a compound of the present invention in plasma, the area under the plasma concentration versus time curve (AUC) was calculated by non-linear least-squares method program, WinNonlin (a registered trademark), and bioavailability (BA) of a compound of the present invention was calculated from AUCs of the oral administration group and the intravenous administration group. […]

A further data set addresses T1, hERG (IKr) (Homo sapiens, UniProt Q12809).
T1 construct: expressed in transfected cells; host or cells: HEK293
Nature of the data set: hERG test. The class given is cell-based. The conditions noted are these: HEK293 cells expressing hERG channel, pH 7.4, 0.3 to 10 μM of test compound, read-out: % inhibition of tail peak current (IKr). The source says:
Test Example 8: hERG Test
For the purpose of assessing risk of an electrocardiogram QT interval prolongation of the compound of the present invention, effects of the compound of the present invention on delayed rectifier K+ current (IKr), which plays an important role in the ventricular repolarization process, was studied using HEK293 cells expressing human ether-a-go-go related gene (hERG) channel.
After a cell was retained at a membrane potential of −80 mV by whole cell patch clamp method using an automated patch clamp system (PatchXpress 7000A, Axon Instruments Inc.), IKr induced by depolarization pulse stimulation at +40 mV for 2 seconds and, further, repolarization pulse stimulation at −50 mV for 2 seconds, was recorded. After the generated current was stabilized, extracellular solution (NaCl: 135 mmol/L, KCl: 5.4 mmol/L, NaH2PO4: 0.3 mmol/L, CaCl2.2H2O: 1.8 mmol/L, MgCl2.6H2O: 1 mmol/L, glucose: 10 mmol/L, HEPES (4-(2-hydroxyethyl)-1-piperazineethanesulfonic acid): 10 mmol/L, pH=7.4), in which the compound of the present invention had been dissolved at an objective concentration, was applied to the cell at room temperature for 10 minutes. From the recording IKr, an absolute value of the tail peak current was measured based on the current value at the resting membrane potential using analysis software (DataXpress ver. 1, Molecular Devices Corporation).

The next data set in a line: physchem. The conditions noted are these: thermodynamic from solid, 1 hour at 37° C. The class given is physicochemical. Here is the method:
Test Example 10: Powder Solubility Test
Appropriate amounts of the compound of the present invention was put into vials and 200 μL of JP-1st Fluid (water was added to 2.0 g of sodium chloride in 7.0 mL of hydrochloride acid to reach 1000 mL), JP-2nd Fluid (water was added to 500 mL of phosphate buffer solution with a pH of 6.8) and 20 mmol/L sodium taurocholate (TCA)/JP-2nd Fluid (JP-2nd Fluid was added to 1.08 g of TCA in JP-2nd Fluid to reach 100 mL) was added to each vial. When the compound was completely dissolved, appropriate amount of compound was added. After shaken for 1 hour at 37° C., the mixture was filtered and 100 μL of methanol was added to 100 μL of each filtrate (double dilution). Dilution magnification was changed if necessary. After it was confirmed whether there were air bubbles and precipitates in the vials, the vials were shaken with tight stopper. The compound concentration was determined with HPLC by the absolute calibration method.

For data set [1], the system named is red blood cells prepared from a defibrinated blood of sheep. Nature of the data set: Light hemolysis test. The format is cell-based. The conditions noted are these: 10 J/cm^2 UV-irradiation, 0.0008 to 0.1 w/v %. The protocol: Test Example 12: Light Hemolysis Test
The compound of the present invention was dissolved at target concentrations and was mixed with a 2.5 v/v % suspension of red blood cells prepared from a defibrinated blood of sheep on a microplate at concentrations of 0.0008 to 0.1 w/v %. The mixtures were exposed to 10 J/cm^2 of UV-irradiation within a range of wavelength 290 to 400 nm, UVA and UVB using ultra violet fluorescent lamps, GL20SE and FL20S-BLB lamps manufactured by Sankyo Denki Co., Ltd. and Panasonic Corporation, respectively. After the completion of the irradiation, the mixtures were centrifuged, and a supernatant of the mixture was collected and was located on a microplate. The phototoxicity was assessed by measuring an absorbance at wavelength of 540 nm and 630 nm in the supernatant. The absorbance data at wavelength of 540 nm and 630 nm were used as indicators of biomembrane damage (photohemolysis %) and hyperoxidation of lipid membrane (methemoglobin formation), respectively. The criteria of phototoxicity was as follows; It was judged to be non-phototoxic (−) when the photohemolysis %<10 and the maximal change in the absorbance at 630 nm (ΔOD)<0.05 were observed. It was judged to be […] when the photohemolysis was more than 10% and the maximal change in the absorbance at 630 nm (ΔOD) was more than 0.05.

T1 sequence (Q12809 whole entry): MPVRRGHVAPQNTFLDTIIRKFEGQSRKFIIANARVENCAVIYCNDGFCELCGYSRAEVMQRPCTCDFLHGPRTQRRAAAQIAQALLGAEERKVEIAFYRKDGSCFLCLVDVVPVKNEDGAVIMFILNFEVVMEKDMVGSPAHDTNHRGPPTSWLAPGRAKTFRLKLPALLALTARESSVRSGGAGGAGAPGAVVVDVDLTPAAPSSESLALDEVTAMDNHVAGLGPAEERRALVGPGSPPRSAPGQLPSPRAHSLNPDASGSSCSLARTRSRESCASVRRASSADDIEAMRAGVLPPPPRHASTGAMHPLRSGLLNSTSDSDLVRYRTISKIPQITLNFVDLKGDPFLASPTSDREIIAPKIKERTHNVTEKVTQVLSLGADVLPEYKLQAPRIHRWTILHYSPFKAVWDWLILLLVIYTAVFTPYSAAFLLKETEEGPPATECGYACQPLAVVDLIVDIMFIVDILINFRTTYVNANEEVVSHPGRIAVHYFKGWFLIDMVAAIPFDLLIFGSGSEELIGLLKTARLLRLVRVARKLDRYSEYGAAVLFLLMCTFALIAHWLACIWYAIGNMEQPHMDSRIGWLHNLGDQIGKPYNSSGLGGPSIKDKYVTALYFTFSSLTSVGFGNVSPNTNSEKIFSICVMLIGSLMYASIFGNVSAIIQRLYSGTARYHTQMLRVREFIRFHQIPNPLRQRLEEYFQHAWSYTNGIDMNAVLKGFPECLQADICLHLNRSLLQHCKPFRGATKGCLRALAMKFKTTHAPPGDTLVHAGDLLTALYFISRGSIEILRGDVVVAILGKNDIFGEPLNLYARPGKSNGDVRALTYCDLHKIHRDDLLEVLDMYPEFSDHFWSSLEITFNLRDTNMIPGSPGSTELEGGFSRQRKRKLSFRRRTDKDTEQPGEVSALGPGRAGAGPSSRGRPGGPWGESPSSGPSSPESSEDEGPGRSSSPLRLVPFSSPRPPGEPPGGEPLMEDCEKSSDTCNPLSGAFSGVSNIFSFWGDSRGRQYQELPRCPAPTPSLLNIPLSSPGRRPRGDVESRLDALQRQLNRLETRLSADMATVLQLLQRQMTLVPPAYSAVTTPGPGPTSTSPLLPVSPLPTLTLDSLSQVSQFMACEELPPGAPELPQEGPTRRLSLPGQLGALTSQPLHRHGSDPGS

As for `O=C1c2c(O)c(=O)ccn2N([C@@H]2c3ccccc3SCc3c2ccc(F)c3F)[C@@H]2COCCN12` [III-2], the EC50 in the data set with influenza virus stood at 1.13 nM. For the same compound, the bioavailability in the data set “in vivo” is 4.2%. Also, at hERG (IKr), the inhibition at 10 min is 7.9%. Besides, the solubility in “physchem” (pH 1.2, simulated gastric fluid, JP-1 solution, read-out: powder solubility, JP-1 solution) is 7.1 µg/mL (≈ 14.7 µM); in the data set “physchem” (pH 6.8, aqueous buffer, JP-2 solution, read-out: powder solubility, JP-2 solution), 4.4 µg/mL (≈ 9.1 µM); in “physchem” (pH 6.8, fassgf or other biorelevant, 20 mmol/L TCA/JP-2 solution), 16.1 µg/mL (≈ 33.3 µM). The phototoxicity result in data set [1] was “(−) (It was judged to be non-phototoxic (−) when the photohemolysis %<10 and the maximal change in the absorbance at 630 nm (ΔOD)<0.05 were observed)”.
